Reference: paper PMC11763264, “Antibacterial and Antifungal Activities of Linear and Cyclic Peptides Containing Arginine, Tryptophan, and Diphenylalanine” (Antibiotics, 2025)
≈ marks a conversion by molar mass, not a printed value. Non-standard residues stand in square brackets, D forms with d. Residues, ends and D or L forms follow the SMILES beside them. Dip = N[C@H](C(=O)O)C(c1ccccc1)c1ccccc1

What was measured:
Assay in all cases: microbe, parasite or virus in culture
[1] = system: MRSA (ATCC BAA-1556); format: cell-based, Methicillin-Resistant Staphylococcus aureus; conditions: ATCC BAA-1556, 24 h
Protocol: (§1) The antibacterial activity of all ten synthesized linear and cyclic peptides was evaluated against MRSA (ATCC BAA-1556), S. aureus (ATCC 29213), E. faecium (ATCC 700221), S. pneumoniae (ATCC 51938), E. faecalis (ATCC 29212), B. subtilis (ATCC-6633), K. pneumoniae (ATCC BAA-1705), P. aeruginosa (ATCC 27883), and E. coli (ATCC 25922). Meropenem and daptomycin were used as positive controls for this study. Certain peptides are marked as “NT” (not tested) against specific bacterial strains based on initial screening data. […] The MIC was determined by micro-broth dilution protocol, where the minimal concentrations were determined to be in wells with no visible bacterial growth.
(§2) All bacterial experiments were carried out in a laminar flow hood (Labconco, Kansas City, MO, USA). The bacterial strains were cultured following the guidelines set by the Clinical Laboratory Standards Institute (CLSI). Antibacterial assays were performed using a standard microtiter dilution method as described in previous studies. The minimum inhibitory concentration (MIC) refers to the lowest peptide concentration that inhibits bacterial growth in wells with no visible bacterial growth. MIC was determined by micro-broth dilution. Bacteria were cultured overnight in 6 mL of Luria Broth (LB). A stock solution of the peptide was prepared in water and DMSO, and a test compound solution with a concentration of 256 µg/mL was made in LB. Meropenem, with a solubility of 8 mg/mL, was prepared as a stock solution at 4 mg/500 µL. An aliquot of the overnight bacteria culture was diluted in normal saline (NS, 1 mL) until achieving a 0.5 McFarland turbidity (1.5 × 10^8 bacterial cell CFU/mL). A 0.5 McFarland compared solution (60 µL) was added to Mueller Hinton Broth (MH) 8940 µL to generate a 1/150 dilution. A 200 µL test compound solution was added to the first well of a 96-well plate, and the remaining wells (2–12) were filled with 100 µL of MH media using a multi-channel pipette from a sterile reservoir. A concentration of […] of the tested peptides was prepared from a stock solution of the samples for testing in Muller−Hinton broth MH media. Peptides stock solution was dissolved in 5% DMSO in water, and the final concentration of DMSO in the first well of assay plate was 2.5% DMSO/H2O and diluted across the assay plate.
(§3) A 100 µL sample from well 1 was pipetted into well 2, and the solution was mixed thoroughly by pipetting up and down. Next, 100 µL was transferred from well 2 to well 3, followed by thorough mixing. This 2-fold serial dilution process continued through well 11, with no additions made to well 12. The final 100 µL from well 11 was discarded. After completing the serial dilution, each well (1–12) contained 100 µL of solution. The bacterial culture in MH media was vortexed and transferred to a sterile reservoir, from which 100 µL was added to each well using a 12-channel pipette. (Note: The dilutions were further diluted upon adding the bacterial solution; for example, the concentration in well 1 started at […] after the addition of the bacterial culture.) The plates were incubated overnight at 37 °C for 24 h. All experiments were performed in triplicate and repeated twice, with controls consisting of bacteria in MH media and positive controls of daptomycin or meropenem.

[2] = system: S. aureus (ATCC 29213); format: cell-based, Staphylococcus aureus; conditions: ATCC 29213, 24 h
Protocol: as §1, §2, §3

[3] = system: E. faecium (ATCC 700221); format: cell-based, Enterococcus faecium; conditions: ATCC 700221, 24 h
Protocol: as §1, §2, §3

[4] = system: S. pneumoniae (ATCC 51938); format: cell-based, Streptococcus pneumoniae; conditions: ATCC 51938, 24 h
Protocol: as §1, §2, §3

[5] = system: E. faecalis (ATCC 29212); format: cell-based, Enterococcus faecalis; conditions: ATCC 29212, 24 h
Protocol: as §1, §2, §3

[6] = system: B. subtilis (ATCC-6633); format: cell-based, Bacillus subtilis; conditions: ATCC-6633, 24 h
Protocol: as §1, §2, §3

[7] = system: K. pneumoniae (ATCC BAA-1705); format: cell-based, Klebsiella pneumoniae; conditions: ATCC BAA-1705, 24 h
Protocol: as §1, §2, §3

[8] = system: P. aeruginosa (ATCC 27883); format: cell-based, Pseudomonas aeruginosa; conditions: ATCC 27883, 24 h
Protocol: as §1, §2, §3

[9] = system: E. coli (ATCC 25922); format: cell-based, Escherichia coli; conditions: ATCC 25922, 24 h
Protocol: as §1, §2, §3

[10] = system: C. albicans (ATCC 60193); format: cell-based, Candida albicans; conditions: ATCC 60193, 24 h
Protocol: (§4) The antifungal activity of all ten synthesized linear and cyclic peptides was evaluated against C. albicans (ATCC 60193), C. parapsilosis (ATCC 22019), and A. fumigatus (AF-293). Fluconazole and amphotericin B were used as positive controls for this study. The MIC was determined at concentrations in wells with no visible fungal growth.
(§5) In this study, C. albicans and C. parapsilosis were cultured on Yeast Peptone Dextrose (YPD) agar containing 1% w/v yeast extract, 2% w/v peptone, 2% w/v D-glucose, and 1.5% agar. A single colony from the agar was selected and cultured in Tryptone soy broth supplemented with 0.1% D-glucose, then incubated for 24 h at 37 °C. The cells were washed twice with PBS by centrifugation at 2000 RPM for 5 min. The pellet was resuspended in 5 mL of PBS, diluted in RPMI 1640 with L-glutamine, supplemented with 2% D-glucose, and the pH adjusted using HEPES buffer. The suspension was then incubated for 50 min at 35 °C to achieve a final cell concentration of 10^6 cells/mL.
(§6) Peptide concentrations of 50, 25, 12.5, 6.25, and 3.1 μg/mL were tested in triplicate and repeated twice. Each well of a 96-well plate was inoculated with the prepared inoculum suspension, which was diluted with RPMI media to a final volume of 200 μL per well. The control well received the same inoculum without any compound. The plates were incubated for 24 h at 37 °C. Fungal and microbial growth were visually observed in the control wells, and the minimum inhibitory concentration (MIC) was determined as the lowest concentration at which no growth was detected in the wells. Amphotericin B was used as a standard antifungal drug.

[11] = system: C. parapsilosis (ATCC 22019); format: cell-based, Candida parapsilosis; conditions: ATCC 22019, 24 h
Protocol: as §4, §5, §6

SMILES | MIC [1] | MIC [2] | MIC [3] | MIC [4] | MIC [5] | MIC [6] | MIC [7] | MIC [8] | MIC [9] | MIC [10] | MIC [11]
N=C(N)NCCC[C@H](NC(=O)[C@@H](NC(=O)[C@H](CCCNC(=N)N)NC(=O)[C@@H](NC(=O)[C@H](CCCNC(=N)N)NC(=O)[C@H](Cc1c[nH]c2ccccc12)NC(=O)[C@H](CCCNC(=N)N)NC(=O)[C@H](Cc1c[nH]c2ccccc12)NC(=O)[C@H](CCCNC(=N)N)NC(=O)[C@@H](N)Cc1c[nH]c2ccccc12)C(c1ccccc1)c1ccccc1)C(c1ccccc1)c1ccccc1)C(=O)O [((DipR)2(WR)3)] (H-WRWRWR[Dip]R[Dip]R-OH) | 3.1 µM (≈ 5.59 µg/mL) | 3.1 µM (≈ 5.59 µg/mL) | 3.1 µM (≈ 5.59 µg/mL) | 0.78 µM (≈ 1.41 µg/mL) | 6.3 µM (≈ 11.4 µg/mL) | 1.6 µM (≈ 2.89 µg/mL) | 12.5 µM (≈ 22.6 µg/mL) | 12.5 µM (≈ 22.6 µg/mL) | 6.3 µM (≈ 11.4 µg/mL) | 3.5 µM (≈ 6.31 µg/mL) | 6.9 µM (≈ 12.4 µg/mL)
N=C(N)NCCC[C@H](NC(=O)[C@@H](NC(=O)[C@H](CCCNC(=N)N)NC(=O)[C@@H](NC(=O)[C@H](CCCNC(=N)N)NC(=O)[C@@H](NC(=O)[C@H](CCCNC(=N)N)NC(=O)[C@H](Cc1c[nH]c2ccccc12)NC(=O)[C@H](CCCNC(=N)N)NC(=O)[C@@H](N)Cc1c[nH]c2ccccc12)C(c1ccccc1)c1ccccc1)C(c1ccccc1)c1ccccc1)C(c1ccccc1)c1ccccc1)C(=O)O [((DipR)3(WR)2)] (H-WRWR[Dip]R[Dip]R[Dip]R-OH) | 3.1 µM (≈ 5.71 µg/mL) | 3.1 µM (≈ 5.71 µg/mL) | 3.1 µM (≈ 5.71 µg/mL) | 0.78 µM (≈ 1.44 µg/mL) | 3.1 µM (≈ 5.71 µg/mL) | 3.1 µM (≈ 5.71 µg/mL) | 25 µM (≈ 46 µg/mL) | 25 µM (≈ 46 µg/mL) | 12.5 µM (≈ 23 µg/mL) | 3.4 µM (≈ 6.26 µg/mL) | 6.8 µM (≈ 12.5 µg/mL)
N=C(N)NCCC[C@H](NC(=O)[C@@H](NC(=O)[C@H](CCCNC(=N)N)NC(=O)[C@@H](NC(=O)[C@H](CCCNC(=N)N)NC(=O)[C@@H](NC(=O)[C@H](CCCNC(=N)N)NC(=O)[C@@H](NC(=O)[C@H](CCCNC(=N)N)NC(=O)[C@@H](N)Cc1c[nH]c2ccccc12)C(c1ccccc1)c1ccccc1)C(c1ccccc1)c1ccccc1)C(c1ccccc1)c1ccccc1)C(c1ccccc1)c1ccccc1)C(=O)O [((DipR)4(WR))] (H-WR[Dip]R[Dip]R[Dip]R[Dip]R-OH) | 3.1 µM (≈ 5.82 µg/mL) | 3.1 µM (≈ 5.82 µg/mL) | 1.6 µM (≈ 3.01 µg/mL) | 0.78 µM (≈ 1.47 µg/mL) | 1.6 µM (≈ 3.01 µg/mL) | 12.5 µM (≈ 23.5 µg/mL) | 25 µM (≈ 47 µg/mL) | 25 µM (≈ 47 µg/mL) | 12.5 µM (≈ 23.5 µg/mL) | 6.6 µM (≈ 12.4 µg/mL) | 6.6 µM (≈ 12.4 µg/mL)
